The first test has as its target T1, KRAS G12C 1-169, his-tagged protein, GDP-loaded (Homo sapiens, UniProt P01116, G12C).
T1 construct: KRAS G12C 1-169, his-tagged protein, GDP-loaded
Kind of test: Covalent binding (% modification) to KRAS G12C by mass spectrometry. Note: test concentration or dose not given here. The following applies: covalent binding to KRAS G12C after a ten minute incubation period.
Regarding `C=CC(=O)N1[C@H](C)CN(c2nc(NC3CCN(C4CC4)CC3)nc3c(F)c(-c4c(C)ccc5[nH]ncc45)c(Cl)cc23)C[C@@H]1C` [Compound 33, 1-((2R,6S)-4-(6-chloro-2-((1-cyclopropyl-piperidin-4-yl)amino)-8-fluoro-7-(5-methyl-1H-indazol-4-yl)quinazolin-4-yl)-2,6-dimethyl-piperazin-1-yl) prop-2-en-1-one], the Binding % result was “++ (++ indicates binding activity from 50 to 90%)”.

For the molecule `C=CC(=O)N1C[C@H](C)N(c2nc(N3CC(N(C)C)C3)nc3c(F)c(-c4c(O)cccc4F)c(Cl)cc23)C[C@H]1C` (atropisomer, axis not shown) [Compound 52, 1-((2R,5S)-4-((S)-6-chloro-2-(3-(dimethylamino)azetidin-1-yl)-8-fluoro-7-(2-fluoro-6-hydroxyphenyl)quinazolin-4-yl)-2,5-dimethyl-piperazin-1-yl) prop-2-en-1-one], the Binding % result is “+++ (+++ indicates binding activity greater than 90%)”.

In the case of `C=CC(=O)N1C[C@H](C)N(c2nc(OCCN(CC)CC)nc3c(F)c(-c4c(O)cccc4F)c(Cl)cc23)C[C@H]1C` (atropisomer, axis not shown) [Compound 74, 1-((2R,5S)-4-((R)-6-chloro-2-(2-(diethylamino)ethoxy)-8-fluoro-7-(2-fluoro-6-hydroxyphenyl)quinazolin-4-yl)-2,5-dimethyl-piperazin-1-yl) prop-2-en-1-one], the Binding % result was “+ (+ indicates binding activity up to 50%)”.

For the molecule `C=CC(=O)N1[C@H](C)CN(c2nc(N3CC(N(C)C)C3)nc3c(F)c(-c4c(O)cccc4F)c(Cl)cc23)C[C@@H]1C` [Compound 26, 1-((2R,6S)-4-(6-chloro-2-(3-(dimethylamino)azetidin-1-yl)-8-fluoro-7-(2-fluoro-6-hydroxyphenyl)quinazolin-4-yl)-2,6-dimethyl-piperazin-1-yl) prop-2-en-1-one], the Binding % result is “++ (++ indicates binding activity from 50 to 90%)”.

For `C=CC(=O)N1CCN(c2nc(N3CC(N(C)C)C3)nc3c(F)c(-c4c(O)cccc4F)c(Cl)cc23)[C@@H](C)C1` [Compound 8, 1-((3 S)-4-(6-Chloro-2-(3-(Dimethylamino)Azetidin-1-Yl)-8-Fluoro-7-(2-Fluoro-6-Hydroxyphenyl)Quinazolin-4-Yl)-3-Methylpiperazin-1-Yl)Prop-2-En-1-One], the Binding % result is reported as “+++ (+++ indicates binding activity greater than 90%)”.

As to `C=CC(=O)N1CCN(c2nc(N3CC(N(C)C)C3)nc3c(F)c(-c4c(O)cccc4F)c(Cl)cc23)[C@@H](C)C1` (atropisomer, axis not shown) [Compound 59, 1-((S)-4-((R)-6-chloro-2-(3-(dimethylamino)azetidin-1-yl)-8-fluoro-7-(2-fluoro-6-hydroxyphenyl)quinazolin-4-yl)-3-methyl-piperazin-1-yl) prop-2-en-1-one], the Binding % entry is recorded as “+ (+ indicates binding activity up to 50%)”.

Staying with this test, now noted: covalent binding to KRAS G12C after a three minute incubation period.
Regarding `C#CCN(C)C1CN(c2nc(N3C[C@@H](C)N(C(=O)C=C)C[C@@H]3C)c3cc(Cl)c(-c4c(O)cccc4F)c(F)c3n2)C1` [Compound 93, 1-((2R,5S)-4-(6-chloro-8-fluoro-7-(2-fluoro-6-hydroxyphenyl)-2-(3-(methyl (prop-2-yn-1-yl)amino)azetidin-1-yl)quinazolin-4-yl)-2,5-dimethyl-piperazin-1-yl) prop-2-en-1-one], the Binding % result was “++ (++ indicates binding activity from 50 to 90%)”.

Consider `C=CC(=O)N1C[C@H](C)N(c2nc(N3CC(N(C)C4CCC4)C3)nc3c(F)c(-c4c(C)ccc5[nH]ncc45)c(Cl)cc23)C[C@H]1C` [Compound 143, 1-((2R,5S)-4-(6-chloro-2-(3-(cyclobutyl (methyl)amino)azetidin-1-yl)-8-fluoro-7-(5-methyl-1H-indazol-4-yl)quinazolin-4-yl)-2,5-dimethyl-piperazin-1-yl) prop-2-en-1-one], for which the Binding % entry is “+++ (+++ indicates binding activity greater than 90%)”.

For the molecule `C=CC(=O)N1C[C@H](C)N(c2nc(N3CC(N(CC)CC)C3)nc3c(F)c(-c4c(C)ccc5[nH]ncc45)c(Cl)cc23)C[C@H]1C` (atropisomer, axis not shown) [Compound 152, 1-((2R,5S)-4-(6-chloro-2-(3-(diethylamino)azetidin-1-yl)-8-fluoro-7-((S)-5-methyl-1H-indazol-4-yl)quinazolin-4-yl)-2,5-dimethyl-piperazin-1-yl) prop-2-en-1-one], the Binding % result was “+ (+ indicates binding activity greater than 0% and up to 50%)”.

In the case of `C=CC(=O)N1CCN(c2nc(OCCN(CC)CC)nc3c(F)c(-c4c(O)cccc4F)c(Cl)cc23)C[C@H]1C` [Compound 85, 1-((2R)-4-(6-chloro-2-(2-(diethylamino)ethoxy)-8-fluoro-7-(2-fluoro-6-hydroxyphenyl)quinazolin-4-yl)-2-methyl-piperazin-1-yl) prop-2-en-1-one], the Binding % entry is given as “++ (++ indicates binding activity from 50 to 90%)”.

With `C=CC(=O)N1C[C@H](C)N(c2nc(N3CC4(CCN(C)C4)C3)nc3c(F)c(-c4c(O)cccc4F)c(Cl)cc23)C[C@H]1C` [Compound 190, 1-((2R,5S)-4-(6-chloro-8-fluoro-7-(2-fluoro-6-hydroxyphenyl)-2-(6-methyl-2,6-diazaspiro[3.4]octan-2-yl)quinazolin-4-yl)-2,5-dimethyl-piperazin-1-yl) prop-2-en-1-one], the Binding % entry is on record as “++ (++ indicates binding activity from 50 to 90%)”.

For the molecule `C=CC(=O)N1C[C@H](C)N(c2nc(N3CC(N(C)C)C3)nc3c(F)c(-c4cc(Cl)ccc4F)c(Cl)cc23)C[C@H]1C` [Compound 160, 1-((2R,5S)-4-(6-chloro-7-(5-chloro-2-fluoro-phenyl)-2-(3-(dimethylamino)azetidin-1-yl)-8-fluoroquinazolin-4-yl)-2,5-dimethyl-piperazin-1-yl) prop-2-en-1-one], the Binding % result is given as “++ (++ indicates binding activity from 50 to 90%)”.

`C=CC(=O)N1CCN(c2nc(N3CC(N(C)C)C3)nc3c(F)c(-c4c(O)cccc4F)c(Cl)cc23)C[C@@H]1C` [Compound 88, 1-((2S)-4-(6-chloro-2-(3-(dimethylamino)azetidin-1-yl)-8-fluoro-7-(2-fluoro-6-hydroxyphenyl)quinazolin-4-yl)-2-methyl-piperazin-1-yl) prop-2-en-1-one]: the Binding % entry was “+ (+ indicates binding activity greater than 0% and up to 50%)”.

Regarding `C[C@@H]1CN(c2nc(N3CC(N(C)C)C3)nc3c(F)c(-c4c(O)cccc4F)c(Cl)cc23)[C@@H](C)CN1C(=O)C#CCO` [Compound 113, 1-((2R,5S)-4-(6-chloro-2-(3-(dimethylamino)azetidin-1-yl)-8-fluoro-7-(2-fluoro-6-hydroxyphenyl)quinazolin-4-yl)-2,5-dimethyl-piperazin-1-yl)-4-hydroxybut-2-yn-1-one], the Binding % entry is reported as “+++ (+++ indicates binding activity greater than 90%)”.

As to `C=CC(=O)N1C[C@H](C)N(c2nc(N3CC(N(CC)CC)C3)nc3c(F)c(-c4c(O)cccc4F)c(Cl)cc23)C[C@H]1C` [Compound 126, 1-((2R,5S)-4-(6-chloro-2-(3-(diethylamino)azetidin-1-yl)-8-fluoro-7-(2-fluoro-6-hydroxyphenyl)quinazolin-4-yl)-2,5-dimethyl-piperazin-1-yl) prop-2-en-1-one], the Binding % entry is “+++ (+++ indicates binding activity greater than 90%)”.

(Values after patent US10646488B2 (Araxes Pharma LLC, priority 2016, dated 2020).)
